The values that follow are results of earlier work, collected in patent US20240016859A1, “MICROENCAPSULATED AND CHROMOSOME INTEGRATED COMPOSITIONS FOR L-DOPA MICROBIOME THERAPY” (Iowa State University Research Foundation, Inc., priority 2020, published 2024).

With `N[C@@H](Cc1ccc(O)c(O)c1)C(=O)O` [Levodopa, (−)-L-a-amino-b-(3,4-dihydroxybenzene)propanoic acid], the solubility in water entry is given as “slightly soluble”.
